Molecular target: Leishmania L (Leishmania major, UniProt P90628)
Experiment: Cysteine protease inhibition, progress curve method, leishmania L
Assay type: biochemical, Leishmania spp
Settings: 10 uM Cbz-Phe-Arg-AMC, 100 mM Na acetate pH 5.5, 5 mM cysteine
Description: Standard assay conditions for the determination of kinetic constants used 10 uM fluorogenic peptide substrate, Cbz-Phe-Arg-AMC for the cysteine proteases from Leishmania spp and Schistosoma Mansoni, Cbz-Leu-Arg-AMC for the cysteine proteases from Plasmodium falciparum and Trypanosoma brucei rhodesiensi, and Ac-Lys-Glu-Lys-Leu-Arg-AMC (4 uM final substrate concentration) for the cysteine protease from Trypoanosoma cruzi, and were determined in 100 mM Na acetate at pH 5.5 containing 5 mM cysteine. Stock substrate solutions were prepared at concentrations of […] in DMSO with 10 uM (4 uM for Ac-Lys-Glu-Lys-Leu-Arg-AMC) final substrate concentration in the assays. The final DMSO concentration was 2% and the final volume was 100 uL. All assays were conducted at ambient temperature. […]
Potential inhibitors were evaluated using the progress curve method. […] For those compounds whose progress curves were linear, apparent inhibition constants (Ki,app) were calculated according to equation 1 (Brandt et al., Biochemitsry, 1989, 28, 140): […]
Where [AMC] is the concentration of product formed over time t, v0 is the initial reaction velocity and vss is the final steady state rate. Values for kobs were then analyzed as a linear function of inhibitor concentration to generate an apparent second order rate constant (kobs/inhibitor concentration or kobs/[I]) describing the time-dependent inhibition. […]

Chain of Leishmania L (P90628 126-443): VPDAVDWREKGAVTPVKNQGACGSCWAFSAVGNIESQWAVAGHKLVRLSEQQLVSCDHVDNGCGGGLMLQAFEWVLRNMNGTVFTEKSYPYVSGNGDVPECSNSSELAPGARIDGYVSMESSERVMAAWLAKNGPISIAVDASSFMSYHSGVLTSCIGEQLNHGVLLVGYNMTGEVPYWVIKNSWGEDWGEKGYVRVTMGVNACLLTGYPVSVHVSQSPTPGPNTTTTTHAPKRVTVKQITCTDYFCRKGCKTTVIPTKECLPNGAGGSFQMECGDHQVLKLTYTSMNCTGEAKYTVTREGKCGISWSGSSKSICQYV

In the case of “Naphthlene-2-carboxylic acid ((S)-3-methyl-1-{3-oxo-1-[2-(3-pyridin-2-yl-phenyl)ethyl]-azepan-4-ylcarbamoyl}-butyl)amide [Example 10]”, the Ki is reported as 82 nM.
